Key:
P. berghei sporozoites [1] = format: cell-based, Plasmodium berghei
Description: %invasion=total sporozites−extracellular sporozites×100/total sporozites
Invasion assays were performed as previously described (Pinzon-Ortiz, C., et al.) with some modifications. […] Cells were then washed, fixed, and sporozoites were stained with a double staining assay that distinguishes between intracellular and extracellular sporozoites (Renia, L., et al.). […]

P. berghei sporozoites [2] = assay: Sporozoite gliding motility assay, P. berghei; format: cell-based, Plasmodium berghei
Description: Glass 8-chambered Lab-tek wells (Nalgene) were coated with 10 μg/ml 3D11 in PBS overnight at 25° C. and then washed three times with PBS. 2×10^4 P. berghei sporozoites were incubated with 50 μM allicin in DMEM without Cys/Met for ten minutes at 28° C., the medium removed and replaced with DMEM/3% BSA containing 50 μM or 4.2 μM allicin before sporozoites were added to the coated Lab-Tek wells. The sporozoites were incubated for one hour at 37° C., the medium was removed, and the wells were fixed with 4% paraformaldehyde, washed, blocked with PBS/1% BSA, and incubated with biotinylated 3D11 followed by Streptavidin-FITC (1:100 dilution; Amersham Pharmacia). All incubations were performed at 37° C. for one hour. Controls included untreated sporozoites and sporozoites added to wells in the presence of 1 μM cytochalasin D. For each group, gliding motility was assessed by determining the percentage of sporozoites associated with trails, and for those sporozoites with trails, counting the number of circles in each trail.

P. yoelii sporozoites = assay: Sporozoite infectivity in vivo (liver 18S rRNA by RT and real time PCR); set-up: species or system Plasmodium yoelii in Swiss/Webster mice
Description: Swiss/Webster mice were given three intraperitoneal injections of DMEM with or without E-64 (50 mg/kg/injection) at 16 hours, 2.5 hours, and 1 hour prior to intravenous injection of 15,000 P. yoelii sporozoites. Forty hours later, livers were harvested and total RNA was isolated using Tri-Reagent (Molecular Research Center, Cincinnati, Ohio). Malaria infection was quantified using reverse-transcription (RT) followed by real time PCR as outlined in (Bruna-Romero, et al. (2001)). RTs were performed with […] of total RNA and random hexamers (PE Applied Biosystems, Foster City, Calif.). Real time PCR was performed using primers that recognize P. yoelii-specific sequences within the 18S rRNA (Bruna-Romero, et al. (2001)) and the SYBR Green Core PCR kit (PE Applied Biosystems). Ten-fold dilutions of a plasmid construct containing the P. yoelii 18S gene were used to create a standard curve.
Swiss/Webster mice were given either 5 or 8 mg/kg of allicin (in DMEM without Cys/Met) intravenously (i.v.) at 60 minutes, 30 minutes, or immediately before i.v. injection of 10^4 P. yoelii sporozoites. Forty hours later, livers were harvested, total RNA was isolated, and malaria infection was quantified using reverse transcription (RT) followed by real time PCR using primers that recognize P. yoelii-specific sequences within the 18S rRNA as previously described (Bruna-Romero, O., et al.). Ten-fold dilutions of a plasmid construct containing the P. yoelii 18S rRNA gene were used to create a standard curve. For allicin preincubation experiments, P. yoelii sporozoites were preincubated with or without 50 μM allicin (in DMEM without Cys/Met) for ten minutes at 28° C. and diluted 12-fold with medium before i.v. injection into mice. All in vivo data were analyzed using the Student t-test for unpaired samples.

[3] = 50 μM allicin ten minutes, then diluted to 4.2 μM

**Q.** What does the source list for C=CCS[S+]([O-])CC=C (stereo not drawn) [allicin]?
**A.** sporozoite invasion of cells (P. berghei sporozoites [1]; 10, 25, and 50 μM allicin pretreatment): inhibited sporozoite invasion of cells in a dose dependent manner; effect on invasion, host cells pretreated (P. berghei sporozoites [1]; Hepa 1-6 cells preincubated with 50 μM allicin one hour, untreated sporozoites): no effect on invasion; gliding motility (P. berghei sporozoites [2]; [3]): no effect on gliding motility; percentage gliding and number of circles per trail versus controls (P. berghei sporozoites [2]; [3]): the same; gliding motility (P. berghei sporozoites [2]; kept in 50 μM allicin for the duration of the assay): completely inhibited; sporozoite infectivity in vivo versus untreated controls (P. yoelii sporozoites; 8 mg/kg allicin i.v. just before injection of sporozoites): significantly decreased infectivity; protection in vivo (P. yoelii sporozoites; 8 mg/kg allicin i.v. one hour before sporozoites): little protection; sporozoite infectivity in vivo versus untreated mice (P. yoelii sporozoites; 8 mg/kg allicin i.v. thirty minutes before sporozoites): decreased infectivity; reduction in infection (P. yoelii sporozoites; allicin 5 mg/kg i.v. one minute before sporozoites): 10 fold; decrease in infection compared to controls (P. yoelii sporozoites; allicin 8 mg/kg i.v. one minute before sporozoites): 1000 fold; malaria infection in mice injected with pretreated sporozoites (P. yoelii sporozoites; sporozoites preincubated with 50 μM allicin ten minutes, diluted 12-fold): no evidence of malaria infection

**Q.** With CC(C)C[C@H](NC(=O)[C@H]1O[C@@H]1C(=O)O)C(=O)NCCCCN=C(N)N (relative stereo) [E-64, L-trans-epoxysuccinyl-leucylamide-[4-guanido]-butane] as the molecule, how does the “effect on sporozoite invasion, target cells pretreated” value (P. berghei sporozoites [1]; Hepa 1-6 cells pretreated with E-64, untreated sporozoites) read?
**A.** Its value is “no inhibitory effect on sporozoite invasion”.

**Q.** And the “number of extracellular (attached) sporozoites” value (P. berghei sporozoites [1]; in the presence of E-64)?
**A.** Its value is “always enhanced”.

**Q.** And the inhibition of invasion (P. berghei sporozoites [1]; sporozoites preincubated two hours with 10 mM E-64, Hepa 1-6 cells, one hour)?
**A.** Its inhibition of invasion is 90%.

**Q.** What about the “intracellular sporozoites in the presence of inhibitor” value (P. berghei sporozoites [1]; wild type and RCon sporozoites, Hepa 1-6, 1 hr) of the same molecule?
**A.** The value was “few intracellular wild type and RCon sporozoites”.

**Q.** And the “average number of circles per gliding sporozoite” value (P. berghei sporozoites [2]; E-64 treated versus untreated sporozoites)?
**A.** The value was “not different”.

**Q.** What about the “percentage of sporozoites that exhibited gliding motility” value (P. berghei sporozoites [2]; P. berghei, preincubated with 10 mM E-64) of the same molecule?
**A.** The value was “no effect”.

**Q.** And the “protection from malaria infection (liver P. yoelii 18S rRNA)” value (P. yoelii sporozoites; E-64 50 mg/kg/injection intraperitoneal at 16 hours, 2.5 hours, 1 hour before 15,000 sporozoites i.v.)?
**A.** Its value is “completely protected from malaria infection”.

Source: patent US20130022612A1, “METHODS AND COMPOSITIONS FOR MALARIA PROPHYLAXIS” (priority 2004, published 2013)
